Measurements published in the supplement of paper PMC11061612.

Columns and labels:
Assay in all cases: Bliss excess, mean over the matrix (fraction); higher = more synergy
[1] = tested on: NCI-H1781 (Lung Adenocarcinoma)
Outline: (§1)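 Cell lines grown in DMEM/F12 or RPMI with 10% FBS were plated in 1536-well plates and held 24 hours at 37°C, 5% CO2 before 72 hours of exposure to two-drug dose matrices, with DMSO typically at 0.2%. CellTiter-Glo 2.0 luminescence gave viability, which was converted to inhibition. Vehicle wells were set to 0 and blank wells to 1. Combination Emax is the second-highest inhibition in the matrix, and Bliss excess is the observed combination effect minus the expected EA + EB − EA·EB, where EA and EB are the single-agent effects.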

[2] = tested on: IGR-1 (Melanoma)
Outline: as §1

[3] = tested on: HPAC (Pancreatic Carcinoma)
Outline: as §1

[4] = tested on: COR-L23 (Non-Small Cell Lung Carcinoma)
Outline: as §1

[5] = tested on: EM-2 (Chronic Myelogenous Leukemia)
Outline: as §1

[6] = tested on: NALM-6 (B-Lymphoblastic Leukemia)
Outline: as §1

[7] = tested on: SW1990 (Pancreatic Carcinoma)
Outline: as §1

[8] = tested on: LS-513 (Colorectal Carcinoma)
Outline: as §1

[9] = tested on: SW1783 (Low Grade Glioma)
Outline: as §1

[10] = tested on: COR-L95 (Small Cell Lung Carcinoma)
Outline: as §1

[11] = tested on: NCI-H1793 (Lung Adenocarcinoma)
Outline: as §1

[12] = tested on: DOV13 (Ovarian Carcinoma)
Outline: as §1

[13] = tested on: DB (B-Cell Non-Hodgkin's Lymphoma)
Outline: as §1

[14] = tested on: SW1088 (Low Grade Glioma)
Outline: as §1

[15] = tested on: SW780 (Bladder Carcinoma)
Outline: as §1

[16] = tested on: MDA-MB-231 (Breast Carcinoma)
Outline: as §1

[17] = tested on: NCI-H1694 (Small Cell Lung Carcinoma)
Outline: as §1

[18] = tested on: HT-29 (Colorectal Carcinoma)
Outline: as §1

[19] = tested on: HCC2157 (Breast Carcinoma)
Outline: as §1

[20] = tested on: LU-99A (Non-Small Cell Lung Carcinoma)
Outline: as §1

SMILES | Bliss excess [1] | Bliss excess [2] | Bliss excess [3] | Bliss excess [4] | Bliss excess [5] | Bliss excess [6] | Bliss excess [7] | Bliss excess [8] | Bliss excess [9] | Bliss excess [10] | Bliss excess [11] | Bliss excess [12] | Bliss excess [13] | Bliss excess [14] | Bliss excess [15] | Bliss excess [16] | Bliss excess [17] | Bliss excess [18] | Bliss excess [19] | Bliss excess [20]
Cc1nc(Nc2ncc(C(=O)Nc3c(C)cccc3Cl)s2)cc(N2CCN(CCO)CC2)n1 [Dasatinib] + CC(=O)Nc1cccc(-n2c(=O)n(C3CC3)c(=O)c3c(Nc4ccc(I)cc4F)n(C)c(=O)c(C)c32)c1 [Trametinib] (first compound max 2 µM, 7x7, partner max 1 µM) | -0.0355 | -0.0448 | 0.039 | 0.0284 | -0.0935 | 0.0217 | 0.0235 | 0.0777 | -0.0712 | -0.0318 | -0.0406 | 0.0135 | -0.0005 | -0.0087 | 0.0848 | -0.0145 | -0.0311 | 0.0984 | -0.0199 | -0.0137
CN(C)CCCOc1ccc(-c2ccc3ncc4c(c3c2)n(C2CCOCC2)c(=O)n4C)cn1 [AZD0156] + C=CCn1c(=O)c2cnc(Nc3ccc(N4CCN(C)CC4)cc3)nc2n1-c1cccc(C(C)(C)O)n1 [AZD1775] (first compound max 1 µM, partner max 1 µM) | -0.0014 | -0.031 | -0.0284 | 0.0047 | -0.0548 | 0.0093 | -0.0358 | -0.0448 | -0.0624 | -0.107 | -0.0489 | -0.0523 | -0.0119 | -0.0738 | -0.0311 | -0.0415 | -0.0303 | -0.0411 | -0.0233 | -0.0422
C[C@@H](c1ccc2nccn2c1)n1nnc2ncc(-c3cnn(C)c3)nc21 [Savolitinib] + CC1(C)CCC(CN2CCN(c3ccc(C(=O)NS(=O)(=O)c4ccc(NCC5CCOCC5)c([N+](=O)[O-])c4)c(Oc4cnc5[nH]ccc5c4)c3)CC2)=C(c2ccc(Cl)cc2)C1 [Venetoclax] (first compound max 1 µM, 7x7, partner max 1 µM) | -0.0702 | -0.0583 | -0.084 | -0.0457 | -0.0593 | 0.01 | -0.0219 | -0.0599 | -0.0442 | 0.0069 | -0.0566 | -0.0552 | 0.0216 | -0.0115 | -0.0671 | -0.0599 | -0.0286 | -0.0358 | 0.0068 | -0.0746
Cc1c2c(nn1C)CSCc1cc(n(C)n1)CSc1cc(c3ccccc3c1)OCCCc1c(C(=O)O)n(C)c3c-2c(Cl)ccc13 [AZD5991] + CCN(CCO)CCCOc1ccc2c(Nc3cc(CC(=O)Nc4cccc(F)c4)[nH]n3)ncnc2c1 [AZD2811] (first compound max 1 µM, 7x7, partner max 1 µM) | -0.0155 | 0.0316 | 0.0104 | 0.0013 | -0.0729 | -0.0839 | 0.0159 | 0.0137 | -0.0135 | 0.0028 | -0.0255 | 0.0169 | 0.0711 | -0.0485 | 0.0188 | 0.0604 | 0.0939 | 0.0498 | -0.0241 | 0.0252
NC1(C(=O)N[C@@H](CCO)c2ccc(Cl)cc2)CCN(c2ncnc3[nH]ccc23)CC1 [Capivasertib] + CC(=O)c1c(C)c2cnc(Nc3ccc(N4CCNCC4)cn3)nc2n(C2CCCC2)c1=O [Palbociclib] (first compound max 10 µM, 7x7, partner max 10 µM) | -0.0326 | -0.0028 | 0.0004 | -0.0252 | -0.0552 | -0.0107 | -0.0404 | -0.0138 | -0.0263 | -0.0565 | -0.0287 | 0.0055 | 0.0453 | 0.0361 | -0.0119 | -0.0024 | -0.0472 | 0.0086 | -0.0052 | -0.0189
NC1(C(=O)N[C@@H](CCO)c2ccc(Cl)cc2)CCN(c2ncnc3[nH]ccc23)CC1 [Capivasertib] + COc1nnc2ccc(N3CCC(c4ccc(OCCN5CCN(C)C(=O)[C@H]5C)cc4)CC3)nn12 [AZD5153] (first compound max 10 µM, 7x7, partner max 1 µM) | 0.0513 | -0.0325 | 0.0657 | 0.0335 | 0.0043 | -0.0517 | -0.0086 | -0.0246 | 0.0324 | -0.0272 | 0.0278 | -0.0489 | -0.0003 | 0.0253 | 0.0042 | -0.009 | 0.0007 | -0.0029 | -0.008 | 0
COc1nnc2ccc(N3CCC(c4ccc(OCCN5CCN(C)C(=O)[C@H]5C)cc4)CC3)nn12 [AZD5153] + Cn1cnc2c(F)c(Nc3ccc(Br)cc3Cl)c(C(=O)NOCCO)cc21 [Selumetinib] (first compound max 1 µM, 7x7, partner max 10 µM) | -0.0085 | 0.0544 | 0.0161 | -0.0516 | 0.0468 | 0.0085 | -0.0209 | -0.0213 | -0.0214 | -0.0561 | 0.0212 | -0.0263 | 0.0093 | 0.029 | -0.058 | 0.0516 | -0.0641 | -0.0281 | -0.0038 | -0.0118
Cc1c2c(nn1C)CSCc1cc(n(C)n1)CSc1cc(c3ccccc3c1)OCCCc1c(C(=O)O)n(C)c3c-2c(Cl)ccc13 [AZD5991] + C1CN(CCC1(C(=O)N[C@@H](CCO)C2=CC=C(C=C2)Cl)N)C3=NC=NC4=C3C=CN4 [Capivasertib] (first compound max 1 µM, 7x7, partner max 3 µM) | 0.0079 | 0.0228 | -0.0239 | -0.0161 | -0.0149 | 0.0149 | -0.0314 | -0.0343 | -0.0145 | 0.0071 | 0.0258 | 0.0055 | 0.0079 | -0.0562 | -0.011 | -0.0495 | -0.0142 | -0.0114 | -0.0488 | -0.0247
NC1(C(=O)N[C@@H](CCO)c2ccc(Cl)cc2)CCN(c2ncnc3[nH]ccc23)CC1 [Capivasertib] + Cn1cnc2c(F)c(Nc3ccc(Br)cc3Cl)c(C(=O)NOCCO)cc21 [Selumetinib] (first compound max 10 µM, 7x7, partner max 10 µM) | 0.105 | 0.103 | 0.0152 | 0.0071 | 0.0766 | 0.0323 | 0.0535 | 0.0031 | -0.0097 | -0.0359 | -0.0292 | -0.0314 | -0.0093 | 0.0342 | 0.0066 | -0.007 | -0.0078 | -0.0119 | 0.017 | -0.0222
C[C@@H](c1ccc2nccn2c1)n1nnc2ncc(-c3cnn(C)c3)nc21 [Savolitinib] + Cc1c2c(nn1C)CSCc1cc(n(C)n1)CSc1cc(c3ccccc3c1)OCCCc1c(C(=O)O)n(C)c3c-2c(Cl)ccc13 [AZD5991] (first compound max 1 µM, 7x7, partner max 1 µM) | -0.0293 | -0.0112 | -0.0586 | -0.048 | -0.0401 | -0.0141 | -0.0306 | -0.0219 | -0.0133 | -0.0171 | -0.0351 | -0.0518 | 0.0299 | 0.021 | -0.0487 | -0.0186 | 0.0027 | -0.0297 | -0.0289 | -0.0346
CCN(CCO)CCCOc1ccc2c(Nc3cc(CC(=O)Nc4cccc(F)c4)[nH]n3)ncnc2c1 [AZD2811] + C=CCn1c(=O)c2cnc(Nc3ccc(N4CCN(C)CC4)cc3)nc2n1-c1cccc(C(C)(C)O)n1 [AZD1775] (first compound max 1 µM, partner max 1 µM) | 0.0795 | -0.0438 | 0.0048 | -0.0043 | -0.0184 | -0.0515 | -0.0403 | -0.0974 | -0.073 | -0.0225 | -0.0064 | -0.0063 | 0.0251 | 0.0034 | 0.0194 | 0.009 | 0.0223 | -0.0446 | -0.0071 | -0.0354
C=CCn1c(=O)c2cnc(Nc3ccc(N4CCN(C)CC4)cc3)nc2n1-c1cccc(C(C)(C)O)n1 [AZD1775] + O=C(c1cc(Cc2n[nH]c(=O)c3ccccc23)ccc1F)N1CCN(C(=O)C2CC2)CC1 [Olaparib] (first compound max 1 µM, partner max 10 µM) | -0.0451 | 0.0054 | 0.0077 | -0.0182 | -0.0243 | -0.0045 | -0.0697 | 0.0008 | -0.0028 | -0.101 | -0.0145 | -0.0389 | -0.0788 | 0.0045 | -0.0262 | -0.0267 | -0.036 | -0.0368 | -0.0187 | -0.0603
Cc1c2c(nn1C)CSCc1cc(n(C)n1)CSc1cc(c3ccccc3c1)OCCCc1c(C(=O)O)n(C)c3c-2c(Cl)ccc13 [AZD5991] + C[C@@H]1COCCN1C2=NC(=NC(=C2)C3(CC3)[S@](=N)(=O)C)C4=C5C=CNC5=NC=C4 [AZD6738] (first compound max 1 µM, 7x7, partner max 10 µM) | 0.0103 | 0.105 | 0.0409 | -0.0121 | 0.0299 | -0.0114 | -0.0062 | 0.0383 | 0.0272 | 0.0482 | 0.0097 | 0.0005 | 0.0042 | -0.0048 | 0.0324 | 0.0132 | 0.0064 | 0.0165 | 0.0155 | -0.0152
Cc1c2c(nn1C)CSCc1cc(n(C)n1)CSc1cc(c3ccccc3c1)OCCCc1c(C(=O)O)n(C)c3c-2c(Cl)ccc13 [AZD5991] + CN(C)CCCOc1ccc(-c2ccc3ncc4c(c3c2)n(C2CCOCC2)c(=O)n4C)cn1 [AZD0156] (first compound max 1 µM, 7x7, partner max 1 µM) | -0.0155 | -0.0219 | 0.0384 | -0.0086 | -0.0436 | 0.0032 | 0.0159 | -0.0378 | -0.0074 | -0.0328 | 0.0332 | -0.0235 | -0.0093 | -0.0356 | -0.0103 | -0.0133 | 0.0033 | 0.0078 | -0.012 | -0.0175
